Measurements as given in US20120122780A1 (Ardea Biosciences Inc., priority 2009, published 2012).

Molecular target: T1, hURAT1 Transporter (Homo sapiens, UniProt Q96S37)
T1 construct: Full-length human URAT1 gene (SLC22Al2) was subcloned from plasmid pCMV6-XL5 (Origene) into eukaryotic expression plasmid pCMV6/Neo; expressed in transfected cells
T1 sequence (Q96S37 1-553): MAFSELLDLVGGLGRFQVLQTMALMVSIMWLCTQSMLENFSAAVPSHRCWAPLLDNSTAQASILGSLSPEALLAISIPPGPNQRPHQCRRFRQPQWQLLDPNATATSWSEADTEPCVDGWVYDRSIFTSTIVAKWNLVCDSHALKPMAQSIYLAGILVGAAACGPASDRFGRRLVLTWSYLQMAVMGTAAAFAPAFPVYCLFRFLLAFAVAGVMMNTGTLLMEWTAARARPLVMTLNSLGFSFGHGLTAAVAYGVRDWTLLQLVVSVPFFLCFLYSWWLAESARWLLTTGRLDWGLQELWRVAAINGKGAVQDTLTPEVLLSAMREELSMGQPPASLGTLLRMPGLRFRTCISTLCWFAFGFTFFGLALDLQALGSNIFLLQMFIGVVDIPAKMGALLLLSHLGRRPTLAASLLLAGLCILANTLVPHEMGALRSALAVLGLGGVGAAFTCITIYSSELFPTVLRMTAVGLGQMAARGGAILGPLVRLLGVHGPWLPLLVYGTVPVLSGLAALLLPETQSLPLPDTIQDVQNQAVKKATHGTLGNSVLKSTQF
Assay: Uric Acid Uptake Assay (URAT-1 EC50)
Format: cell-based
Conditions: HEK293/urat1 cells, C14 uric acid 40 μM, 10 minutes at room temperature
From the text: Creation of Stable Cell Lines Expressing hURAT1 Transporter: Full-length human URAT1 gene (SLC22Al2) was subcloned from plasmid pCMV6-XL5 (Origene) into eukaryotic expression plasmid pCMV6/Neo (Origene) using Not I restriction sites. Gene sequencing confirmed the sequence of hURAT1 as outlined in Genbank (Accession #NM_144585.2). HEK293 human embryonic kidney cells (ATCC# CRL-1573) were propagated in EMEM tissue culture medium as described by ATCC in an atmosphere of 5% CO2 and 95% air. Transfections of HEK293 cells with the pCMV6/Neo/URAT1 construct were performed using L2000 transfection reagent (Invitrogen) as described by the manufacturer. After 24 h the transfected cells were split into 10 cm tissue culture plates and grown for 1 day after which the medium was replaced with fresh growth medium containing G418 (Gibco) at 0.5 mg/ml final concentration. Drug-resistant colonies were selected after approximately 8 days and then tested for ^14C-uric acid transport activity. The HEK293/urat1 cells are plated on Poly-D-Lysine Coated 96-well Plates at a density of 75,000 cells per well. Cells were grown overnight (20-26 hours) at 37° C. in an incubator. Plates were allowed to come to room temperature and media was washed out with one wash of 250 μl of Wash Buffer (125 mM Na Gluconate, 10 mM Hepes ph 7.3). Compound or vehicle is added in assay buffer with C14 Uric Acid for a final concentration of 40 μM Uric Acid with a specific activity of 54 mCi/mmol Assay Buffer is 125 mM Sodium Gluconate, 4.8 mM Potassium Gluconate, 1.2 mM Potassium phosphate, monobasic, 1.2 mM magnesium sulfate, 1.3 mM Ca Gluconate, 5.6 mM Glucose, 25 mM HEPES, pH 7.3. Plates were incubated at room temperature for 10 minutes then washed 3 times with 50 μWash Buffer and 3 times with 250 μl Wash Buffer. Microscint 20 Scintillation Fluid was added and plates were incubated overnight at 45° C. to equilibrate. Plates are then read on the TopCount Plate Reader and an EC50 value generated. (See Enomoto et al, Nature, 2002, 417, 447-451 and Anzai et al, J. Biol. Chem., 2004, 279, 45942-45950.)
Compounds prepared as described above, were examined according to the procedure described herein and EC50 values generated. The table below summarizes the activity of the compounds in the Uric Acid Uptake Assay, wherein

CCOC(=O)CSc1nnnn1-c1cccc2ccccc12 [6-1 (step C), Ethyl 2-(1-(naphthalen-1-yl)-1H-tetrazol-5-ylthio) acetate]
EC50: 5 to 20 µM

CC(C)(Oc1nnnn1-c1cccc2ccccc12)C(=O)O [Example 6-3]
EC50: > 20 µM

O=C(O)CSc1cnnn1-c1cccc2ccccc12 [Example 5A-1]
EC50: > 20 µM

O=C(O)CSc1nnnn1-c1cccc2ccccc12 [6-1 (step D), 2-(1-(naphthalen-1-yl)-1H-tetrazol-5-ylthio)acetic acid]
EC50: > 20 µM
